Measured values from ChEMBL document CHEMBL5506005, “Biochemical and structural characterization of chlorhexidine as an ATP-assisted inhibitor against type 1 methionyl-tRNA synthetase from Gram-positive bacteria” (Eur J Med Chem, 2024).
Converted amounts (≈) assume the structure as drawn. The source made the active and inactive calls. No cut-off for these calls is given here.

How the values were obtained:
[1] = molecular target: Methionine--tRNA ligase (Staphylococcus aureus (strain Mu50 / ATCC 700699)) (UniProt P67578); test: Binding affinity to Staphylococcus aureus MetRS expressed in Escherichia coli BL21(DE3) cells assessed as change in Gibbs free energy in presence of 50 uM ATP by ITC analysis
[2] = molecular target: Methionine--tRNA ligase (Staphylococcus aureus (strain Mu50 / ATCC 700699)) (UniProt P67578); test: Binding affinity to Staphylococcus aureus MetRS expressed in Escherichia coli BL21(DE3) cells assessed as change in entropy by ITC analysis
[3] = molecular target: Methionine--tRNA ligase (Staphylococcus aureus (strain Mu50 / ATCC 700699)) (UniProt P67578); test: Binding affinity to Staphylococcus aureus MetRS expressed in Escherichia coli BL21(DE3) cells assessed as change in enthalpy in presence of 20 uM ATP by ITC analysis
[4] = molecular target: Methionine--tRNA ligase (Staphylococcus aureus (strain Mu50 / ATCC 700699)) (UniProt P67578); test: Binding affinity to Staphylococcus aureus MetRS expressed in Escherichia coli BL21(DE3) cells assessed as change in entropy in presence of 50 uM ATP by ITC analysis
[5] = molecular target: Methionine--tRNA ligase (Staphylococcus aureus (strain Mu50 / ATCC 700699)) (UniProt P67578); test: Binding affinity to Staphylococcus aureus MetRS expressed in Escherichia coli BL21(DE3) cells assessed as change in enthalpy in presence of 1 mM ATP by ITC analysis
[6] = molecular target: Methionine--tRNA ligase (Staphylococcus aureus (strain Mu50 / ATCC 700699)) (UniProt P67578); test: Binding affinity to Staphylococcus aureus MetRS expressed in Escherichia coli BL21(DE3) cells assessed as change in enthalpy by ITC analysis
[7] = molecular target: Methionine--tRNA ligase (Staphylococcus aureus (strain Mu50 / ATCC 700699)) (UniProt P67578); test: Binding affinity to Staphylococcus aureus MetRS expressed in Escherichia coli BL21(DE3) cells assessed as thermal stability by measuring change in melting temperature incubated for 10 mins followed by heat treatment in presence of 2 mM ATP by SYPRO orange dye based TSA
[8] = molecular target: Methionine--tRNA ligase (Staphylococcus aureus (strain Mu50 / ATCC 700699)) (UniProt P67578); test: Binding affinity to Staphylococcus aureus MetRS expressed in Escherichia coli BL21(DE3) cells assessed as change in entropy in presence of 1 mM ATP by ITC analysis
[9] = molecular target: Methionine--tRNA ligase (Staphylococcus aureus (strain Mu50 / ATCC 700699)) (UniProt P67578); test: Binding affinity to Staphylococcus aureus MetRS expressed in Escherichia coli BL21(DE3) cells assessed as change in Gibbs free energy in presence of 1 mM ATP by ITC analysis
[10] = molecular target: Methionine--tRNA ligase (Staphylococcus aureus (strain Mu50 / ATCC 700699)) (UniProt P67578); test: Binding affinity to Staphylococcus aureus MetRS expressed in Escherichia coli BL21(DE3) cells assessed as change in entropy in presence of 20 uM ATP by ITC analysis
[11] = molecular target: Methionine--tRNA ligase (Staphylococcus aureus (strain Mu50 / ATCC 700699)) (UniProt P67578); test: Binding affinity to Staphylococcus aureus MetRS expressed in Escherichia coli BL21(DE3) cells assessed as change in Gibbs free energy by ITC analysis
[12] = molecular target: Methionine--tRNA ligase (Staphylococcus aureus (strain Mu50 / ATCC 700699)) (UniProt P67578); test: Binding affinity to Staphylococcus aureus MetRS expressed in Escherichia coli BL21(DE3) cells assessed as change in Gibbs free energy in presence of 20 uM ATP by ITC analysis
[13] = molecular target: Methionine--tRNA ligase (Staphylococcus aureus (strain Mu50 / ATCC 700699)) (UniProt P67578); test: Binding affinity to Staphylococcus aureus MetRS expressed in Escherichia coli BL21(DE3) cells assessed as change in enthalpy in presence of 50 uM ATP by ITC analysis
[14] = molecular target: T1, Methionine--tRNA ligase (Enterococcus faecalis) (UniProt A0A3N3ZFK4); test: Binding affinity to Enterococcus faecalis type 1 MetRS expressed in Escherichia coli BL21(DE3) cells assessed as change in Gibbs free energy in presence of 1 mM ATP by ITC analysis
[15] = molecular target: Methionine--tRNA ligase (Staphylococcus aureus (strain Mu50 / ATCC 700699)) (UniProt P67578); test: Binding affinity to Staphylococcus aureus MetRS expressed in Escherichia coli BL21(DE3) cells assessed as change in Gibbs free energy in presence of 500 uM ATP by ITC analysis
[16] = molecular target: Methionine--tRNA ligase (Staphylococcus aureus (strain Mu50 / ATCC 700699)) (UniProt P67578); test: Binding affinity to Staphylococcus aureus MetRS expressed in Escherichia coli BL21(DE3) cells assessed as increase in melting temperature incubated for 10 mins followed by heat treatment in presence of 0.30 to 10 mM ATP by SYPRO orange dye based TSA
[17] = molecular target: T1, Methionine--tRNA ligase (Enterococcus faecalis); test: Binding affinity to Enterococcus faecalis type 1 MetRS expressed in Escherichia coli BL21(DE3) cells assessed as change in enthalpy by ITC analysis
[18] = molecular target: T1, Methionine--tRNA ligase (Enterococcus faecalis); test: Binding affinity to Enterococcus faecalis type 1 MetRS expressed in Escherichia coli BL21(DE3) cells assessed as change in entropy in presence of 1 mM ATP by ITC analysis
[19] = molecular target: Methionine--tRNA ligase (Staphylococcus aureus (strain Mu50 / ATCC 700699)) (UniProt P67578); test: Binding affinity to Staphylococcus aureus MetRS expressed in Escherichia coli BL21(DE3) cells assessed as change in melting temperature at 100 uM incubated for 10 mins followed by heat treatment in presence of 2 mM ATP by SYPRO orange dye based TSA (reference value: 56.4 degreeC)
[20] = molecular target: T1, Methionine--tRNA ligase (Enterococcus faecalis); test: Inhibition of Enterococcus faecalis type 1 MetRS expressed in Escherichia coli BL21(DE3) cells at 50 uM measured after 1.5 hrs by pre-transfer editing assay
[21] = molecular target: Methionine--tRNA ligase (Staphylococcus aureus (strain Mu50 / ATCC 700699)) (UniProt P67578); test: Binding affinity to Staphylococcus aureus MetRS expressed in Escherichia coli BL21(DE3) cells assessed as increase in melting temperature incubated for 10 mins followed by heat treatment in presence of 0.30 to 10 mM ADP by SYPRO orange dye based TSA
[22] = molecular target: T1, Methionine--tRNA ligase (Enterococcus faecalis); test: Binding affinity to Enterococcus faecalis type 1 MetRS expressed in Escherichia coli BL21(DE3) cells assessed as change in Gibbs free energy by ITC analysis
[23] = molecular target: Methionine--tRNA ligase (Staphylococcus aureus (strain Mu50 / ATCC 700699)) (UniProt P67578); test: Binding affinity to Staphylococcus aureus MetRS expressed in Escherichia coli BL21(DE3) cells assessed as change in Gibbs free energy in presence of ATP/L-Met by ITC analysis
[24] = molecular target: T1, Methionine--tRNA ligase (Enterococcus faecalis); test: Binding affinity to Enterococcus faecalis type 1 MetRS expressed in Escherichia coli BL21(DE3) cells assessed as change in entropy by ITC analysis
Staphylococcus aureus = test: Antibacterial activity against Staphylococcus aureus; format: functional
[25] = molecular target: Methionine--tRNA ligase (Staphylococcus aureus (strain Mu50 / ATCC 700699)) (UniProt P67578); test: Binding affinity to Staphylococcus aureus MetRS expressed in Escherichia coli BL21(DE3) cells assessed as change in entropy in presence of ATP/L-Met by ITC analysis
[26] = molecular target: Methionine--tRNA ligase (Staphylococcus aureus (strain Mu50 / ATCC 700699)) (UniProt P67578); test: Binding affinity to Staphylococcus aureus MetRS expressed in Escherichia coli BL21(DE3) cells assessed as change in enthalpy in presence of ATP/L-Met by ITC analysis
[27] = molecular target: Methionine--tRNA ligase (Staphylococcus aureus (strain Mu50 / ATCC 700699)) (UniProt P67578); test: Binding affinity to Staphylococcus aureus MetRS expressed in Escherichia coli BL21(DE3) cells assessed as increase in melting temperature incubated for 10 mins followed by heat treatment in presence of <3 mM AMP by SYPRO orange dye based TSA
[28] = molecular target: Methionine--tRNA ligase (Staphylococcus aureus (strain Mu50 / ATCC 700699)) (UniProt P67578); test: Binding affinity to Staphylococcus aureus MetRS expressed in Escherichia coli BL21(DE3) cells assessed as change in entropy in presence of 500 uM ATP by ITC analysis
[29] = molecular target: Methionine--tRNA ligase (Staphylococcus aureus (strain Mu50 / ATCC 700699)) (UniProt P67578); test: Inhibition of Staphylococcus aureus MetRS expressed in Escherichia coli BL21(DE3) cells at 100 uM measured after 2.5 hrs in presence of ATP by pre-transfer editing assay relative to control
[30] = molecular target: Methionine--tRNA ligase (Staphylococcus aureus (strain Mu50 / ATCC 700699)) (UniProt P67578); test: Inhibition of Staphylococcus aureus type 1 MetRS expressed in Escherichia coli BL21(DE3) cells at 50 uM measured after 2.5 hrs by pre-transfer editing assay
[31] = molecular target: T1, Methionine--tRNA ligase (Enterococcus faecalis); test: Binding affinity to Enterococcus faecalis type 1 MetRS expressed in Escherichia coli BL21(DE3) cells assessed as change in enthalpy in presence of 1 mM ATP by ITC analysis
[32] = molecular target: Methionine--tRNA ligase (Staphylococcus aureus (strain Mu50 / ATCC 700699)) (UniProt P67578); test: Binding affinity to Staphylococcus aureus MetRS expressed in Escherichia coli BL21(DE3) cells assessed as change in melting temperature at 100 uM incubated for 10 mins followed by heat treatment by SYPRO orange dye based TSA (reference value: 53.7 degreeC)
[33] = molecular target: Methionine--tRNA ligase (Staphylococcus aureus (strain Mu50 / ATCC 700699)) (UniProt P67578); test: Binding affinity to Staphylococcus aureus MetRS expressed in Escherichia coli BL21(DE3) cells assessed as change in enthalpy in presence of 500 uM ATP by ITC analysis

Sequence of Methionine--tRNA ligase (Staphylococcus aureus (strain Mu50 / ATCC 700699)) (P67578 whole entry): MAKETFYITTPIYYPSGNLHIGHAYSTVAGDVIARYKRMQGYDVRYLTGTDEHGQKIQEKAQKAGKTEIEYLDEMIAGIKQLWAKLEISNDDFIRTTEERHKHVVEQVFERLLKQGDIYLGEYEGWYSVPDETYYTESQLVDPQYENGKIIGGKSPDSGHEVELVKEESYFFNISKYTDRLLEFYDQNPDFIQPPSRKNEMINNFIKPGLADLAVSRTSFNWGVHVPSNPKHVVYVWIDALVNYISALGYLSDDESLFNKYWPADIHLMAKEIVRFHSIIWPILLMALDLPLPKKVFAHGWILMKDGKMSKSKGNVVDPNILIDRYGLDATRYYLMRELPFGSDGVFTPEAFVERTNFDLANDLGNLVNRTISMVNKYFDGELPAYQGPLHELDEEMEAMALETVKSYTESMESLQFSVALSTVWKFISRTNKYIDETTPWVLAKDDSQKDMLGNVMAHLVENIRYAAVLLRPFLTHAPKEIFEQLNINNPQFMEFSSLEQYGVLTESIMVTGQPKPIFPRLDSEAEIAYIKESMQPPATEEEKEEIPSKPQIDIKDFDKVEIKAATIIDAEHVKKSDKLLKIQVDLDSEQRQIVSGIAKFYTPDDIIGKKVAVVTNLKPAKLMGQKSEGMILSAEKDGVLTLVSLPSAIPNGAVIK
T1 sequence (A0A3N3ZFK4 as listed by the source): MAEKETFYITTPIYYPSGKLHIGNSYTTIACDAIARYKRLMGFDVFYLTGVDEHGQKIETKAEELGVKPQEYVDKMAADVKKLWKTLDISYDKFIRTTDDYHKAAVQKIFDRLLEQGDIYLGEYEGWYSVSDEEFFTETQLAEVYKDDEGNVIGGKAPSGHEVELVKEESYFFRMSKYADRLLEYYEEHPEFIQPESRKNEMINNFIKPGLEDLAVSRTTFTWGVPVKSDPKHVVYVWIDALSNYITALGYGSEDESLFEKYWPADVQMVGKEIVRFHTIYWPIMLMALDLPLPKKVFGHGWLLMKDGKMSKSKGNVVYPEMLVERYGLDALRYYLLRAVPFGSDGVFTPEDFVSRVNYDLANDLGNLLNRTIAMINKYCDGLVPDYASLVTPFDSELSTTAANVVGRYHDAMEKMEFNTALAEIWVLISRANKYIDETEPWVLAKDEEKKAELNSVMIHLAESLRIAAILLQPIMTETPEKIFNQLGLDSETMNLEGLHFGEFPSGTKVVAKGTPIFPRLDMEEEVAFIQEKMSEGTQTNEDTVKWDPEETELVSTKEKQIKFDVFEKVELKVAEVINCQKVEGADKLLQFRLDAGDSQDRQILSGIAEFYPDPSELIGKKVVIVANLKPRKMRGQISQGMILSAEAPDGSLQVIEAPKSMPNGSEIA

Compound: N=C(NCCCCNC(=N)NC(=N)Nc1ccc(Cl)cc1)NC(=N)Nc1ccc(Cl)cc1
- deltaG [1]: -8.61 kcal/mol
- -TdeltaS [2]: 1.94 kcal/mol
- deltaH [3]: -18 kcal/mol
- -TdeltaS [4]: 7.28 kcal/mol
- deltaH [5]: -14.4 kcal/mol
- deltaH [6]: -8.62 kcal/mol
- ΔTm [7]: 9 °C
- -TdeltaS [8]: 6.23 kcal/mol
- deltaG [9]: -8.7 kcal/mol
- -TdeltaS [10]: 11.3 kcal/mol
- deltaG [11]: -7.24 kcal/mol
- deltaG [12]: -8 kcal/mol
- deltaH [13]: -15.7 kcal/mol

Compound: N=C(NCCCCCCNC(=N)NC(=N)Nc1ccc(Cl)cc1)NC(=N)Nc1ccc(Cl)cc1 [CHLORHEXIDINE]
- deltaG [1]: -8.07 kcal/mol
- -TdeltaS [2]: 0.027 kcal/mol
- deltaG [14]: -8.91 kcal/mol
- deltaG [15]: -8.5 kcal/mol
- Activity [16]: Active
- deltaH [17]: -11.3 kcal/mol
- deltaH [3]: -20 kcal/mol
- -TdeltaS [18]: -1.6 kcal/mol
- -TdeltaS [4]: 10.7 kcal/mol
- ΔTm [19]: 7 °C
- inhibition [20]: Active
- Activity [21]: Active
- deltaG [22]: -7.23 kcal/mol
- deltaH [5]: -11 kcal/mol
- deltaG [23]: -7.34 kcal/mol
- deltaH [6]: -5.95 kcal/mol
- -TdeltaS [24]: 4.06 kcal/mol
- ΔTm [7]: 7 °C
- -TdeltaS [8]: 2.31 kcal/mol
- MIC (Staphylococcus aureus): 0.25 µg/mL (≈ 0.495 µM)
- -TdeltaS [25]: 6.23 kcal/mol
- deltaH [26]: -13.6 kcal/mol
- deltaG [9]: -8.66 kcal/mol
- -TdeltaS [10]: 13.8 kcal/mol
- Activity [27]: inactive
- -TdeltaS [28]: 4.43 kcal/mol
- inhibition [29]: 78.3%
- inhibition [30]: Active
- deltaG [11]: -6.81 kcal/mol
- deltaH [31]: -7.31 kcal/mol
- ΔTm [32]: -3.4 °C
- deltaG [12]: -7.52 kcal/mol
- deltaH [33]: -12.5 kcal/mol
- deltaH [13]: -18.8 kcal/mol
